The target in assay [1] is T1, NTS1 (Homo sapiens, UniProt P30989).
T1 construct: endogenous in cells; host or cells: HT29 cells (membranes or living cells)
Nature of the assay: Binding to living HT29 cells (competition). Particulars: 60 min 37° C., tracer [Lys6(DTPA(111In))]-NT, the labeled DTPA(111In)-peptide itself, or 125I-NT (DOTA-peptides). The method, then: After washing the wells twice with ice-cold DMEM 0.2% BSA, cells were lysed in 500 μL 0.1N NaOH and radioactivity was counted. Non-specific binding was evaluated in the presence of 10^-6 M neurotensin. Competition curves were analyzed with the “Equilibrium Expert” software (Raguin et al., Anal. Biochem. (2002) 310, 1-14). All experiments were performed three times in triplicate. Ki values for binding to HT29 cell membranes and IC50 for binding to cells were used to evaluate affinity (Table 2).

Assay [2] deals with T1, NTS1. Nature of the assay: Binding to HT29 cell membranes (competition with 125I-Tyr3-neurotensin). The settings on record: 50 pM 125I-Tyr3-neurotensin, 45 min room temperature. How it is done: Membrane bound activity was recovered by filtration onto Whatman GF/B filters presoaked for 1 hour with polyethyleneimine (0.2% in water) and rinsed twice with buffer. Non-specific binding was evaluated in the presence of 10^-6 M neurotensin. Radioactivity was counted and results were analyzed with GraphPad Prism® (GraphPad Software, Inc. San Diego, Calif.). All experiments were performed three times in triplicate. Ki values for binding to HT29 cell membranes and IC50 for binding to cells were used to evaluate affinity (Table 2).

Non-standard residues stand in square brackets, D forms with d. Residues, ends and D or L forms follow the SMILES beside them. Tle = CC(C)(C)[C@H](N)C(=O)O

For orientation: IC50 means the concentration needed to halve the response being measured. Read a low IC50 as inhibition by little substance. By Ki is commonly meant the equilibrium dissociation constant of an inhibitor or competing ligand from its target. Lower therefore signals higher affinity.

T1 sequence (P30989 whole entry): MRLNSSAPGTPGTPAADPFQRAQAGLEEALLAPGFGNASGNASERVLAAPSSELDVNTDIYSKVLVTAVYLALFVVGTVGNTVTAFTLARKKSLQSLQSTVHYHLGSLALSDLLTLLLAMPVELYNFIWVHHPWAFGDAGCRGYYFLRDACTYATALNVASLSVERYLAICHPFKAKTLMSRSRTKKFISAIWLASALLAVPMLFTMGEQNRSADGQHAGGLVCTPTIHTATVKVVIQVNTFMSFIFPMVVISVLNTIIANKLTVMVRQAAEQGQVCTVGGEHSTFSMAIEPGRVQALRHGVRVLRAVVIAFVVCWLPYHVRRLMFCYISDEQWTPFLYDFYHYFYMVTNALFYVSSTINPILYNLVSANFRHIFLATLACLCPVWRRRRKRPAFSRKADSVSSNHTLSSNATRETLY

As for `CC(=O)N[C@@H](CCCCN)C(=O)N1CCC[C@H]1C(=O)N[C@@H](CCCNC(=N)N)C(=O)N[C@@H](CCCNC(=N)N)C(=O)N1CCC[C@H]1C(=O)N[C@@H](Cc1ccc(O)cc1)C(=O)N[C@H](C(=O)N[C@@H](CC(C)C)C(=O)O)C(C)(C)C` [NT-20.2, Ac-Lys-Pro-Arg-Arg-Pro-Tyr-Tle-Leu-OH] (Ac-KPRRPY[Tle]L-OH), the IC50 on NTS1 [1] is 2.46 ± 0.79 nM. This compound also returned a Ki on NTS1 [2] of 0.26 ± 0.07 nM.
Regarding `CC[C@H](C)[C@H](NC(=O)[C@H](Cc1ccc(O)cc1)NC(=O)[C@@H]1CCCN1C(=O)[C@H](CCCNC(=N)N)NC(=O)[C@H](CCCNC(=N)N)NC(=O)[C@@H]1CCCN1C(=O)[C@H](CCCCN)NC(C)=O)C(=O)N[C@@H](CC(C)C)C(=O)O` [NT-20.1], the IC50 at NTS1 [1] amounted to 0.82 ± 0.08 nM. This compound also showed a Ki at NTS1 [2] of 0.072 ± 0.019 nM.

For the origin of these results see patent US9809624B2, “Neurotensin analogues for radioisotope targeting to neurotensin receptor-positive tumors” (INSERM (Institut National de la Sante et de la Recherche …, priority 2009, dated 2017).
